{"source": "the supplement of paper PMC11208160", "data": [{"experiment": "recombinant barcode read abundance after kanamycin selection (control-corrected) (log10(CPM+1)); higher = more efficient recombination; sequences stand for … in AGTGCAGAGAAAATCGGCCAGTTTTCTCTGCCTGCAGTCCGCATGCCGT…AGATTTATGCAGCGGACTGCCTTTCTCCCAAAGTGATAAACCGGACAGTATCATGGACCGGTTTTCCCGGTAATCCGTATTTGCAAGGTTGGTTTCACT; site = the 11-nt target", "procedure": "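Pooled E. coli target-specificity screen for the IS621 bridge recombinase. Each library plasmid pairs an 11-nt target (CT core) with a bridge RNA whose target-binding loop (9-nt LTG + 4-nt RTG) is reprogrammed; the rest of the 177-nt WT IS621 bridge RNA scaffold is fixed. The plasmid is co-electroporated with a WT donor plasmid; recombinase is induced with 0.1 mM IPTG and recombinants are selected on kanamycin. Recombinant barcodes are sequenced, converted to CPM, averaged over two biological replicates and corrected by the unselected control CPM. Molecule = full bridge RNA written as DNA: LTG = specificity nt 1-9, RTG = reverse complement of specificity nt 8-11, in the WT scaffold.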", "values": [{"sequence": "TATACTGCTTGGGTTCTAACCTGTTGCCT (site TATACTACTAG)", "recombinant barcode read abundance (log10)": 0.0148}, {"sequence": "TCTGCGACTTGGGTTCTAACCTGTTGCCT (site TCAGCGACTAG)", "recombinant barcode read abundance (log10)": 0.0737}, {"sequence": "ACTAGGCCTTGGGTTCTAACCTGTTGCGG (site ACTAGGCCTCC)", "recombinant barcode read abundance (log10)": 2.2}, {"sequence": "ACGAGTCCTTGGGTTCTAACCTGTTGCCT (site ACGAGTCCTAC)", "recombinant barcode read abundance (log10)": 0.112}, {"sequence": "GGAGGGACTTGGGTTCTAACCTGTTGCCT (site GTAGGGACTAG)", "recombinant barcode read abundance (log10)": 1.7}, {"sequence": "ACAATACCTTGGGTTCTAACCTGTTGCCG (site ACAATACCTCG)", "recombinant barcode read abundance (log10)": 0.408}, {"sequence": "GCTCATACTTGGGTTCTAACCTGTTGCCT (site CACGCGCCTCC)", "recombinant barcode read abundance (log10)": 0.0433}, {"sequence": "TGGAGAGCTTGGGTTCTAACCTGTTGCAG (site ACCTTGCCTTA)", "recombinant barcode read abundance (log10)": 0.0256}, {"sequence": "GGAGTACCTTGGGTTCTAACCTGTTGCAT (site CCTCATACTTG)", "recombinant barcode read abundance (log10)": 0.0895}, {"sequence": "CTACCAGCTTGGGTTCTAACCTGTTGCCT (site CTACCAACTAG)", "recombinant barcode read abundance (log10)": 0.191}, {"sequence": "AGTTAGTCTTGGGTTCTAACCTGTTGCAG (site AGTTAGTCTCT)", "recombinant barcode read abundance (log10)": 1.48}, {"sequence": "TGTAGTCCTTGGGTTCTAACCTGTTGCGT (site TGTAGTCCTAC)", "recombinant barcode read abundance (log10)": 1.19}, {"sequence": "CCGCGCACTTGGGTTCTAACCTGTTGCCT (site CCGCGCACTAG)", "recombinant barcode read abundance (log10)": 0.397}, {"sequence": "CAGCACCCTTGGGTTCTAACCTGTTGCGG (site CAGCACCCTCC)", "recombinant barcode read abundance (log10)": 0.515}, {"sequence": "GGGTCGGCTTGGGTTCTAACCTGTTGCTG (site GGGTCGGCTCA)", "recombinant barcode read abundance (log10)": 1.91}, {"sequence": "ATTTGCACTTGGGTTCTAACCTGTTGCCT (site ATTTGGACTAG)", "recombinant barcode read abundance (log10)": 0.0348}, {"sequence": "ACTTTAGCTTGGGTTCTAACCTGTTGCTT (site ACTTTAGCTAA)", "recombinant barcode read abundance (log10)": 0.399}, {"sequence": "AGGATACCTTGGGTTCTAACCTGTTGCCT (site AGGATACCTAG)", "recombinant barcode read abundance (log10)": 1.56}, {"sequence": "GACCGTCCTTGGGTTCTAACCTGTTGCGT (site GACCGTCCTAA)", "recombinant barcode read abundance (log10)": 0.306}, {"sequence": "AGTGCGGCTTGGGTTCTAACCTGTTGCCT (site CGTGCGGCTAG)", "recombinant barcode read abundance (log10)": 0.231}, {"sequence": "AGATTCGCTTGGGTTCTAACCTGTTGCCG (site AGATTCGCTCG)", "recombinant barcode read abundance (log10)": 0.941}, {"sequence": "GACACGCCTTGGGTTCTAACCTGTTGCCT (site GACACGCCTAC)", "recombinant barcode read abundance (log10)": 0.0669}, {"sequence": "GTAATTGCTTGGGTTCTAACCTGTTGCCT (site GTAACTGCTAG)", "recombinant barcode read abundance (log10)": 0.519}, {"sequence": "GGAGGACCTTGGGTTCTAACCTGTTGCTT (site GGAGGACCTAA)", "recombinant barcode read abundance (log10)": 2.4}, {"sequence": "GAACTCCCTTGGGTTCTAACCTGTTGCGG (site TGTTGGTCTAA)", "recombinant barcode read abundance (log10)": 0.0984}, {"sequence": "TGTCGACCTTGGGTTCTAACCTGTTGCCT (site CGTCGACCTAG)", "recombinant barcode read abundance (log10)": 0.113}, {"sequence": "GTACGTACTTGGGTTCTAACCTGTTGCCT (site CTACGTACTAG)", "recombinant barcode read abundance (log10)": 0.283}, {"sequence": "CGACATCCTTGGGTTCTAACCTGTTGCCT (site CGAGATCCTAG)", "recombinant barcode read abundance (log10)": 0.409}, {"sequence": "GCCTCGGCTTGGGTTCTAACCTGTTGCCT (site GCCTCGGCTAG)", "recombinant barcode read abundance (log10)": 0.134}, {"sequence": "ATAAGGGCTTGGGTTCTAACCTGTTGCCT (site ATAAGGGCTAG)", "recombinant barcode read abundance (log10)": 0.652}, {"sequence": "GTTTCACCTTGGGTTCTAACCTGTTGCCT (site GTTTCACCTAG)", "recombinant barcode read abundance (log10)": 0.491}, {"sequence": "GAGTTACCTTGGGTTCTAACCTGTTGCGT (site GAGTTTCCTAC)", "recombinant barcode read abundance (log10)": 0.0625}, {"sequence": "CTCCGTACTTGGGTTCTAACCTGTTGCCT (site CTCCGTACTAG)", "recombinant barcode read abundance (log10)": 0.858}, {"sequence": "TCAAAGGCTTGGGTTCTAACCTGTTGCCT (site TCTAAGGCTAG)", "recombinant barcode read abundance (log10)": 0.0999}, {"sequence": "TAGAATGCTTGGGTTCTAACCTGTTGCCT (site TAGAATGCTAA)", "recombinant barcode read abundance (log10)": 0.133}, {"sequence": "ACGGGTACTTGGGTTCTAACCTGTTGCCT (site ACGGGTACTAG)", "recombinant barcode read abundance (log10)": 1.51}, {"sequence": "TACTAAGCTTGGGTTCTAACCTGTTGCCT (site TACTAAGCTAG)", "recombinant barcode read abundance (log10)": 0.495}, {"sequence": "ACAGTAGCTTGGGTTCTAACCTGTTGCTG (site ACATTAGCTCA)", "recombinant barcode read abundance (log10)": 0.0402}, {"sequence": "ATCGTTCCTTGGGTTCTAACCTGTTGCGT (site ACCGGTCCTAC)", "recombinant barcode read abundance (log10)": 0.0508}, {"sequence": "GCGCACACTTGGGTTCTAACCTGTTGCCT (site ACGCACACTAG)", "recombinant barcode read abundance (log10)": 0.851}, {"sequence": "TTAGGGACTTGGGTTCTAACCTGTTGCCT (site TTAGGGTCTAG)", "recombinant barcode read abundance (log10)": 0.108}, {"sequence": "GGGCCCGCTTGGGTTCTAACCTGTTGCCT (site GGGCCTGCTAG)", "recombinant barcode read abundance (log10)": 0.154}, {"sequence": "GGAGTACCTTGGGTTCTAACCTGTTGCAT (site GGAGTACCTAT)", "recombinant barcode read abundance (log10)": 2.12}, {"sequence": "CGGAGTCCTTGGGTTCTAACCTGTTGCTA (site CGGGGTCCTTA)", "recombinant barcode read abundance (log10)": 0.0775}, {"sequence": "TGTCGACCTTGGGTTCTAACCTGTTGCCT (site AGTCGACCTAG)", "recombinant barcode read abundance (log10)": 0.596}, {"sequence": "CTCATAACTTGGGTTCTAACCTGTTGCCG (site CTCTAAACTCG)", "recombinant barcode read abundance (log10)": 0.2}, {"sequence": "AACACTGCTTGGGTTCTAACCTGTTGCCT (site AACATTGCTAG)", "recombinant barcode read abundance (log10)": 0.0625}, {"sequence": "GGACCTCCTTGGGTTCTAACCTGTTGCTT (site GGACCTCCTAA)", "recombinant barcode read abundance (log10)": 1.33}, {"sequence": "CGGAAGACTTGGGTTCTAACCTGTTGCCT (site CGGAAGCCTAG)", "recombinant barcode read abundance (log10)": 0.121}, {"sequence": "ACCAATACTTGGGTTCTAACCTGTTGCCT (site ACCAATACTAG)", "recombinant barcode read abundance (log10)": 0.0309}, {"sequence": "AGGGAGACTTGGGTTCTAACCTGTTGCCA (site AGGTAGACTTG)", "recombinant barcode read abundance (log10)": 0.0182}, {"sequence": "CTAGATTCTTGGGTTCTAACCTGTTGCCT (site CGAGATTCTAG)", "recombinant barcode read abundance (log10)": 0.077}, {"sequence": "ACAGGCGCTTGGGTTCTAACCTGTTGCCT (site ACAGACGCTAG)", "recombinant barcode read abundance (log10)": 0.858}, {"sequence": "CTCGGATCTTGGGTTCTAACCTGTTGCTG (site CTCGGATCTCA)", "recombinant barcode read abundance (log10)": 1.08}, {"sequence": "TGGAGAGCTTGGGTTCTAACCTGTTGCAG (site TGGAGAGCTCT)", "recombinant barcode read abundance (log10)": 2.3}, {"sequence": "GCCGGCTCTTGGGTTCTAACCTGTTGCCT (site GCCGGCTCTAG)", "recombinant barcode read abundance (log10)": 1.35}, {"sequence": "TAGGCCACTTGGGTTCTAACCTGTTGCAT (site TAGGCCACTAT)", "recombinant barcode read abundance (log10)": 1.39}, {"sequence": "GAACGACCTTGGGTTCTAACCTGTTGCCT (site AAACGACCTAG)", "recombinant barcode read abundance (log10)": 0.331}, {"sequence": "AGGGCCTCTTGGGTTCTAACCTGTTGCAG (site GGGGCCTCTTT)", "recombinant barcode read abundance (log10)": 0.118}, {"sequence": "GGGCAGTCTTGGGTTCTAACCTGTTGCCG (site GGGCAGTCTCG)", "recombinant barcode read abundance (log10)": 1.78}, {"sequence": "TCCTAGGCTTGGGTTCTAACCTGTTGCGC (site TCCTAGGCTGC)", "recombinant barcode read abundance (log10)": 1.72}, {"sequence": "TTAGTAACTTGGGTTCTAACCTGTTGCCT (site TTAGTAACTAG)", "recombinant barcode read abundance (log10)": 1.21}, {"sequence": "ATACTACCTTGGGTTCTAACCTGTTGCGG (site ATCCCACCTCC)", "recombinant barcode read abundance (log10)": 0.119}, {"sequence": "ATGGGCCCTTGGGTTCTAACCTGTTGCTT (site ATGGGCCCTGA)", "recombinant barcode read abundance (log10)": 0.0928}, {"sequence": "GCGCACACTTGGGTTCTAACCTGTTGCCT (site CCGCACACTAG)", "recombinant barcode read abundance (log10)": 0.206}, {"sequence": "GCGCGTTCTTGGGTTCTAACCTGTTGCCT (site GCGAGCTCTAG)", "recombinant barcode read abundance (log10)": 0.054}, {"sequence": "TGCTGGGCTTGGGTTCTAACCTGTTGCTG (site CTTCATTCTAG)", "recombinant barcode read abundance (log10)": 0.225}, {"sequence": "GTCGGAGCTTGGGTTCTAACCTGTTGCAG (site GTCGGAGCTCG)", "recombinant barcode read abundance (log10)": 0.104}, {"sequence": "AGTACCTCTTGGGTTCTAACCTGTTGCCT (site AATACCTCTAG)", "recombinant barcode read abundance (log10)": 0.192}, {"sequence": "TCCTAGACTTGGGTTCTAACCTGTTGCGG (site TCCTAGACTCC)", "recombinant barcode read abundance (log10)": 1.53}, {"sequence": "ACGTGGCCTTGGGTTCTAACCTGTTGCTG (site ACTTGGCCTCA)", "recombinant barcode read abundance (log10)": 0.618}, {"sequence": "ACACTGTCTTGGGTTCTAACCTGTTGCGG (site ACACTGTCTCC)", "recombinant barcode read abundance (log10)": 1.49}, {"sequence": "CGATCATCTTGGGTTCTAACCTGTTGCCT (site CGCTCATCTAG)", "recombinant barcode read abundance (log10)": 0.0503}, {"sequence": "GGAGAGTCTTGGGTTCTAACCTGTTGCCT (site GTAGAGTCTAG)", "recombinant barcode read abundance (log10)": 1.09}, {"sequence": "TAATTGCCTTGGGTTCTAACCTGTTGCCT (site TAGTTGCCTAG)", "recombinant barcode read abundance (log10)": 0.474}, {"sequence": "GACTTACCTTGGGTTCTAACCTGTTGCCT (site GACCTACCTAG)", "recombinant barcode read abundance (log10)": 1.43}, {"sequence": "GAGGTAACTTGGGTTCTAACCTGTTGCCT (site GAAGTAACTAG)", "recombinant barcode read abundance (log10)": 0.0669}, {"sequence": "TAAAAGGCTTGGGTTCTAACCTGTTGCCT (site TAAAAGGCTAG)", "recombinant barcode read abundance (log10)": 0.0132}, {"sequence": "TCCTATTCTTGGGTTCTAACCTGTTGCGA (site TCCTATTCTTC)", "recombinant barcode read abundance (log10)": 0.544}, {"sequence": "ACATGTGCTTGGGTTCTAACCTGTTGCAG (site ACATGGGCTCG)", "recombinant barcode read abundance (log10)": 0.0637}, {"sequence": "GAGCCACCTTGGGTTCTAACCTGTTGCCT (site TAGCCACCTAG)", "recombinant barcode read abundance (log10)": 0.911}, {"sequence": "TAGTCCTCTTGGGTTCTAACCTGTTGCTG (site TAGTCCTCTCA)", "recombinant barcode read abundance (log10)": 1.02}]}]}
